Assays:
Type in all cases: in vivo
[1] = system: Setaria viridis; assay: Pre-emergence herbicidal action, SETVI; details: dosage 320 g/ha, scored visually after 3 weeks vs untreated controls
Summary of the method: (§1)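 Weed seeds were laid out in sandy loam and covered with soil, then the soil surface was treated with an aqueous suspension or emulsion of the formulated compound containing 0.2% wetting agent. Pots stayed in the greenhouse for 3 weeks before damage was rated visually against untreated plants.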

[2] = system: Amaranthus retroflexus; assay: Pre-emergence herbicidal action, AMARE; details: dosage 320 g/ha, scored visually after 3 weeks vs untreated controls
Summary of the method: as §1

[3] = system: Cyperus serotinus; assay: Pre-emergence herbicidal action, CYPES; details: dosage 320 g/ha, scored visually after 3 weeks vs untreated controls
Summary of the method: as §1

[4] = system: Setaria viridis; assay: Post-emergence herbicidal action, SETVI; details: 80 g/ha, Table C
Summary of the method: (§2)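 Visual percent activity relative to untreated controls, assessed about 3 weeks after foliar treatment, where 0% equals control growth and 100% equals death. Compounds, as wettable powders or emulsion concentrates, are sprayed onto one-leaf-stage plants in sandy loam.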

[5] = system: Stellaria media; assay: Post-emergence herbicidal action, STEME; details: 80 g/ha, Table D
Summary of the method: as §2

[6] = system: Pharbitis purpureum; assay: Post-emergence herbicidal action, PHBPU; details: 80 g/ha, Table D
Summary of the method: as §2

[7] = system: Alopecurus myosuroides; assay: Pre-emergence herbicidal action, ALOMY; details: dosage 320 g/ha, scored visually after 3 weeks vs untreated controls
Summary of the method: as §1

[8] = system: Abutilon theophrasti; assay: Pre-emergence herbicidal action, ABUTH; details: dosage 320 g/ha, scored visually after 3 weeks vs untreated controls
Summary of the method: as §1

[9] = system: Stellaria media; assay: Pre-emergence herbicidal action, STEME; details: dosage 320 g/ha, scored visually after 3 weeks vs untreated controls
Summary of the method: as §1

[10] = system: Viola tricolor; assay: Pre-emergence herbicidal action, VIOTR; details: dosage 320 g/ha, scored visually after 3 weeks vs untreated controls
Summary of the method: as §1

[11] = system: Amaranthus retroflexus; assay: Post-emergence herbicidal action, AMARE; details: 80 g/ha, Table D
Summary of the method: as §2

[12] = system: Alopecurus myosuroides; assay: Post-emergence herbicidal action, ALOMY; details: 80 g/ha, Table C
Summary of the method: as §2

[13] = system: Avena fatua; assay: Post-emergence herbicidal action, AVEFA; details: 80 g/ha, Table C
Summary of the method: as §2

[14] = system: Abutilon theophrasti; assay: Post-emergence herbicidal action, ABUTH; details: 80 g/ha, Table D
Summary of the method: as §2

[15] = system: ECHCG; assay: Post-emergence herbicidal action, ECHCG; details: 80 g/ha, Table C
Summary of the method: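 Weed and crop plants grown in sandy loam in the greenhouse, treated at the one-leaf stage 2–3 weeks after sowing. Damage scored visually after about 3 weeks vs untreated controls (0% = control, 100% = dead).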

[16] = system: Viola tricolor; assay: Post-emergence herbicidal action, VIOTR; details: 80 g/ha, Table D
Summary of the method: as §2

[17] = system: Matricaria inodora; assay: Pre-emergence herbicidal action, MATIN; details: dosage 320 g/ha, scored visually after 3 weeks vs untreated controls
Summary of the method: as §1

[18] = system: Avena fatua; assay: Pre-emergence herbicidal action, AVEFA; details: dosage 320 g/ha, scored visually after 3 weeks vs untreated controls
Summary of the method: as §1

SMILES	herbicidal activity SETVI [1] [%]	herbicidal activity AMARE [2] [%]	herbicidal activity CYPES [3] [%]	herbicidal activity SETVI [4] [%]	Herbicidal activity STEME [5] [%]	Herbicidal activity PHBPU [6] [%]	herbicidal activity ALOMY [7] [%]	herbicidal activity ABUTH [8] [%]	Herbicidal activity STEME [9] [%]	herbicidal activity VIOTR [10] [%]	herbicidal activity AMARE [11] [%]	herbicidal activity ALOMY [12] [%]	herbicidal activity AVEFA [13] [%]	herbicidal activity ABUTH [14] [%]	Herbicidal activity ECHCG [15] [%]	herbicidal activity VIOTR [16] [%]	herbicidal activity MATIN [17] [%]	herbicidal activity AVEFA [18] [%]
CCc1c(C(=O)Nc2nnnn2C)ccc(C(F)F)c1[S+]([O-])CC (stereo not drawn) [Example 1-17]	100	100	100	90	100	90	100	100	100	100	100	90	90	100	90	100	100	100
CCn1nnnc1NC(=O)c1ccc(C(F)F)c(S(C)(=O)=O)c1C1CC1 [Example 2-27]	100	100	100	100	100	90	100	100	100	100	100	90	100	100	100	100	100	100
CCc1c(C(=O)Nc2nnc(C)o2)ccc(C(F)F)c1S(C)(=O)=O [Example 7-13]	100	100	100	100	100	100	100	100	100	100	100	90	100	100	100	100	100	100
CCn1nnnc1NC(=O)c1ccc(C(F)F)c([S+]([O-])CC)c1F (stereo not drawn) [Example 2-41]	100	100	90	100	100	90	100	100	100	100	90	80	90	100	100	100	100	100
CCn1nnnc1NC(=O)c1ccc(C(F)F)c([S+](C)[O-])c1F (stereo not drawn) [Example 2-38]	100	100	100	100	100	90	100	100	100	100	100	90	90	90	100	100	100	100
CCc1c(C(=O)Nc2nnnn2C)ccc(C(F)F)c1S(C)(=O)=O [Example 1-15]	100	100	100	80	100	90	100	100	100	100	100	90	100	90	90	100	100	100
CCn1nnnc1NC(=O)c1ccc(C(F)F)c(SC)c1F [Example 2-37]	100	100	80	100	100	100	90	100	100	100	100	80	90	100	100	90	100	100
Cn1nnnc1NC(=O)c1ccc(C(F)F)c(S(C)(=O)=O)c1Br [Example 1-63]	100	100	100	100	100	100	100	100	100	100	100	90	100	100	90	100	100	100
CCSc1c(C(F)F)ccc(C(=O)Nc2nnc(C)o2)c1CC [Example 7-14]	100	100	100	90	100	90	100	100	100	100	100	90	100	100	90	100	90	100
CC[S+]([O-])c1c(C(F)F)ccc(C(=O)Nc2nnnn2C)c1F (stereo not drawn) [Example 1-41]	100	100	100	90	100	90	100	100	100	100	100	90	100	100	90	100	100	100
Cn1nnnc1NC(=O)c1ccc(C(F)F)c([S+](C)[O-])c1C1CC1 (stereo not drawn) [Example 1-26]	100	100	100	100	100	90	100	100	100	100	100	90	100	100	100	100	100	100

Reference: patent publication US20230183193A1, “4-DIFLUOROMETHYL BENZOYL AMIDES WITH HERBICIDAL ACTION” (BAYER CROPSCIENCE AKTIENGESELLSCHAFT, priority 2017, published 2023)
